52 compounds from US20120101100A1 (priority 2008, published 2012) can be followed below.

Sequence of S. aureus GyrB ATPase (P0A0K8 whole entry): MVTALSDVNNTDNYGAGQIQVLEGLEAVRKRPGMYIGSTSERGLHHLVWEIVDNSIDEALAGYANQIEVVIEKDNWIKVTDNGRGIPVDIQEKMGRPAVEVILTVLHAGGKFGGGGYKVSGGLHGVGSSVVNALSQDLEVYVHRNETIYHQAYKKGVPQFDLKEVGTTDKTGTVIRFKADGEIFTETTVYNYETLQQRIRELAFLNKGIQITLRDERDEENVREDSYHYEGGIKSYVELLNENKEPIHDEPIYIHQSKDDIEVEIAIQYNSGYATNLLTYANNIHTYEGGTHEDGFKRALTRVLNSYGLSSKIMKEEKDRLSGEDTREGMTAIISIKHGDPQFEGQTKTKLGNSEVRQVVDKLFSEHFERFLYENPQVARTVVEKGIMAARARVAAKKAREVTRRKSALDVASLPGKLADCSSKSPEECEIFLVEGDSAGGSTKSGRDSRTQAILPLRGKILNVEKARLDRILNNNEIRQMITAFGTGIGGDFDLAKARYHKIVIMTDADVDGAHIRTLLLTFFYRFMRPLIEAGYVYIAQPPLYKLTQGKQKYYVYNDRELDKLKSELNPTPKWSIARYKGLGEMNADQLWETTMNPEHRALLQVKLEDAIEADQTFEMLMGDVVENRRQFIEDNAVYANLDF
Sequence of S. aureus GyrB ATPase (P0AES4 whole entry, further chain): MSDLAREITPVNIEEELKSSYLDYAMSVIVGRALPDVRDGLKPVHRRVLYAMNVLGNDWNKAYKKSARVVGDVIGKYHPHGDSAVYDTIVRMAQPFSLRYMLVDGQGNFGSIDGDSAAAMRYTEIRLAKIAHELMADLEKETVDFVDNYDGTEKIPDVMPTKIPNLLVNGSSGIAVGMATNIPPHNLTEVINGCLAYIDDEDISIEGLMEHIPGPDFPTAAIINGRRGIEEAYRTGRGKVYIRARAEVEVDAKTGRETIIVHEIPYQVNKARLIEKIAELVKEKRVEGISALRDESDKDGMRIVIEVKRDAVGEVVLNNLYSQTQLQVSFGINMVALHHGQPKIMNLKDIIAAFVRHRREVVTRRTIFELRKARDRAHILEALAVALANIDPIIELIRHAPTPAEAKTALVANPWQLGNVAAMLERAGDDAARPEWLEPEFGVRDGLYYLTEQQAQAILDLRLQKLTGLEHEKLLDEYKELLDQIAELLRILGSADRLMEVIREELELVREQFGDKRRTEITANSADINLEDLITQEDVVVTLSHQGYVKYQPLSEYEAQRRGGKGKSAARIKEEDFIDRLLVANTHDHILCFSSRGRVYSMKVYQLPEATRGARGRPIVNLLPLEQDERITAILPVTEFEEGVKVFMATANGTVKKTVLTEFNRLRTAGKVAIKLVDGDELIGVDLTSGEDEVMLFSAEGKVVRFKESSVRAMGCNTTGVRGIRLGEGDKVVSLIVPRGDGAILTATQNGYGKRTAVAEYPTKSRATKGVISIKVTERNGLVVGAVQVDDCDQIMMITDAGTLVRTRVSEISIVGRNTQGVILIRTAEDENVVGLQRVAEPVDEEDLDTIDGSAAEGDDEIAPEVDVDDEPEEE

In this assay the target is S. aureus GyrB ATPase (Staphylococcus aureus, UniProt P0A0K8). Put plainly: S. aureus (SAU) GyrB ATPase inhibition, malachite green phosphate detection (E. coli GyrA + S. aureus GyrB). The following applies: compound concentration of 1.0 μM unless otherwise noted; average value where assay was carried out more than once; read-out: S. aureus (SAU) GyrB ATPase % Inhibition. Format: biochemical. In short, it runs like this:
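E. coli GyrA and S. aureus GyrB (1.25 nM each) with 500 μM ATP and 5 μg/ml sheared salmon sperm DNA in 50 mM Hepes pH 7.5, 8.0 mM MgCl2. Released phosphate detected with ammonium molybdate/malachite green at 650 nm; 2% DMSO as 0% and 2 μM novobiocin as 100% inhibition; IC50 from 10 concentrations.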
By inhibition is commonly meant the relative decrease from the control value, in per cent. Regarding `CCNC(=O)Nc1cc(-c2nc(C(F)(F)F)cs2)c(-c2cncc(-c3nn(C(=O)N4CCCC4)c(=O)o3)c2)cn1` [Example 159], the inhibition at 1 µM worked out at 97%.

As to `CCNC(=O)Nc1cc(-c2nc(C(F)(F)F)cs2)c(-c2cncc(-c3nn(CCOC)c(=O)o3)c2)cn1` [Example 160], the inhibition at 1 µM worked out at 98%. `CCNC(=O)Nc1cc(-c2nc(C(F)(F)F)cs2)c(-c2cncc(-c3nn(C(C)=O)c(=O)o3)c2)cn1` [Example 161]: the inhibition at 1 µM stood at 97%. For the compound `CCNC(=O)Nc1cc(-c2nc(C(F)(F)F)cs2)c(-c2cncc(-c3nn(CCO)c(=O)o3)c2)cn1` [Example 162], the inhibition at 1 µM was 98%. To `CCNC(=O)Nc1cc(-c2nc(C(F)(F)F)cs2)c(-c2cncc(/C(N)=N/O)c2)cn1` [Example 163, 6′-(3-Ethylureido)-N′-hydroxy-4′-(4-(trifluoromethyl)thiazol-2-yl)-3,3′-bipyridine-5-carboximidamide] belongs 96%; to `CCNC(=O)Nc1cc(-c2nc(C(F)(F)F)cs2)c(-c2cncc(C(=N)N)c2)cn1` [Example 164, 6′-(3-Ethylureido)-4′-(4-(trifluoromethyl)thiazol-2-yl)-3,3′-bipyridine-5-carboximidamide], 96%. To `CCNC(=O)Nc1cc(-n2ccc(C(F)(F)F)n2)c(-c2cncc(-c3nnc([C@@H](N)C(C)C)o3)c2)cn1` [Example 165] belongs 98%; to `CCNC(=O)Nc1cc(-c2nc(C(F)(F)F)cs2)c(-c2cncc(-c3nnc(C4CC4)o3)c2)cn1` [Example 166, 1-(5′-(5-Cyclopropyl-1,3,4-oxadiazol-2-yl)-4-(4-(trifluoromethyl)thiazol-2-yl)-3,3′-bipyridin-6-yl)-3-ethylurea], 72%. The figure for `CCCNC(=O)Nc1cc(-c2nc(C(F)(F)F)cs2)c(-c2cc(-c3nnc(C)o3)cnc2OCCN(C)C)cn1` [Example 167] is 96%; for `CCCNC(=O)Nc1cc(-c2nc(C(F)(F)F)cs2)c(-c2cc(-c3nnc(C)o3)cnc2OCCN2CCCC2)cn1` [Example 168] it is 69%.

Consider `CCCNC(=O)Nc1cc(-c2nc(C(F)(F)F)cs2)c(-c2cc(-c3nnc(C)o3)cnc2OC2CCOCC2)cn1` [Example 169, 1-(5′-(5-Methyl-1,3,4-oxadiazol-2-yl)-2′-(tetrahydro-2H-pyran-4-yloxy)-4-(4-(trifluoromethyl)thiazol-2-yl)-3,3′-bipyridin-6-yl)-3-propylurea], for which the inhibition at 1 µM stood at 96%. `CCCNC(=O)Nc1cc(-c2nc(C(F)(F)F)cs2)c(-c2cc(-c3n[nH]c(=O)o3)cnc2OCCN2CCCC2)cn1` [Example 171]: the inhibition at 1 µM came out at 106%.

Consider `CCCNC(=O)Nc1cc(-c2nc(C(F)(F)F)cs2)c(-c2cncc(-c3nnc(C)o3)c2)cn1` [Example 173, 1-(5′-(5-methyl-1,3,4-oxadiazol-2-yl)-4-(4-(trifluoromethyl)thiazol-2-yl)-3,3′-bipyridin-6-yl)-3-propylurea], for which the inhibition at 1 µM came to 95%. The figure for `CCCNC(=O)Nc1cc(-c2nc(C(F)(F)F)cs2)c(-c2ccnc(-c3nnc(O)o3)c2)cn1` [Example 175, 1-(2′-(5-hydroxy-1,3,4-oxadiazol-2-yl)-4-(4-(trifluoromethyl)thiazol-2-yl)-3,4′-bipyridin-6-yl)-3-propylurea] is 93%; for `CCNC(=O)Nc1cc(-c2nc(C(F)(F)F)cs2)c(-c2cncc(-c3nn(C(=O)N4CCOCC4)c(=O)o3)c2)cn1` [Example 176] it is 98%; for `CCNC(=O)Nc1cc(-c2nc(C(F)(F)F)cs2)c(-c2cncc(-c3nn(C(=O)N4CCCCC4)c(=O)o3)c2)cn1` [Example 177] it is 86%.

As to `CCNC(=O)Nc1cc(-c2nc(C(F)(F)F)cs2)c(-c2cncc(-c3nnc(N4CC[C@@H](O)C4)o3)c2)cn1` [Example 178], the inhibition at 1 µM came out at 97%.

Consider `CCNC(=O)Nc1cc(-c2nc(C(F)(F)F)cs2)c(-c2cncc(-c3nnc(N4CC[C@H](O)C4)o3)c2)cn1` [Example 179], for which the inhibition at 1 µM was 101%. To `CCNC(=O)Nc1cc(-c2nc(C(F)(F)F)cs2)c(-c2cncc(-c3nnc(N4CCC(O)CC4)o3)c2)cn1` [Example 180] belongs 96%. As to `CCNC(=O)Nc1cc(-c2nc(C(F)(F)F)cs2)c(-c2cncc(-c3nnc(N4CCCC(O)C4)o3)c2)cn1` (stereo not shown) [Example 181], the inhibition at 1 µM was 97%. The figure for `CCNC(=O)Nc1cc(-c2nc(C(F)(F)F)cs2)c(-c2cncc(-c3nnc(N4CC(O)C4)o3)c2)cn1` [Example 182] is 99%.

As to `CCNC(=O)Nc1cc(-c2nc(C(F)(F)F)cs2)c(-c2cncc(-c3nnc([C@@H](N)C(C)C)o3)c2)cn1` [Example 183], the inhibition at 1 µM is 96%. Regarding `CCNC(=O)Nc1cc(-c2nc(-c3cnn(C)c3)cs2)c(-c2cncc(S(N)(=O)=O)c2)cn1` [Example 185], the inhibition at 1 µM amounted to 99%. Turning to `CCNC(=O)Nc1cc(-c2nc(C(F)(F)F)cs2)c(-c2cc(-c3n[nH]c(=O)o3)cnc2OCCN2CCCC2)cn1` [Example 186], the inhibition at 1 µM is 110%. The figure for `CCNC(=O)Nc1cc(-c2nc(C(F)(F)F)cs2)c(-c2cc(-c3n[nH]c(=O)o3)cnc2OC2CCOCC2)cn1` [Example 187] is 100%; for `CCNC(=O)Nc1cc(-c2nc(C(F)(F)F)cs2)c(-c2nc(-c3n[nH]c(=O)o3)cs2)cn1` [Example 188] it is 97%. In the case of `CCNC(=O)Nc1cc(-c2nc(C(F)(F)F)cs2)c(-c2cnc(OC)c(-c3n[nH]c(=O)o3)c2)cn1` [Example 189], the inhibition at 1 µM is 103%. To `CCNC(=O)Nc1cc(-c2nc(C(F)(F)F)cs2)c(-c2cnc(-c3n[nH]c(=O)o3)cn2)cn1` [Example 190] belongs 100%. Turning to `CCNC(=O)Nc1cc(-c2nc(C(F)(F)F)cs2)c(-c2ccc(-c3n[nH]c(=O)o3)nn2)cn1` [Example 191], the inhibition at 1 µM was found to be 99%.

With `CCNC(=O)Nc1cc(-c2nnc(-c3ccccc3)o2)c(-c2ccnc(-c3n[nH]c(=O)o3)c2)cn1` [Example 192], the inhibition at 1 µM is 101%.

As for `CCNC(=O)Nc1cc(-c2nnc(-c3ccccc3)o2)c(-c2nc(-c3n[nH]c(=O)o3)cs2)cn1` [Example 193], the inhibition at 1 µM amounted to 89%. For the compound `CCNC(=O)Nc1cc(-c2nnc(-c3ccccc3)o2)c(-c2ncc(-c3n[nH]c(=O)o3)s2)cn1` [Example 194], the inhibition at 1 µM is 101%. The figure for `CCNC(=O)Nc1cc(-c2nnc(-c3ccccc3)o2)c(-c2cnc(-c3n[nH]c(=O)o3)cn2)cn1` [Example 195] is 98%; for `CCNC(=O)Nc1cc(-c2nnc(-c3ccccc3)o2)c(-c2cncc(-c3n[nH]c(=O)o3)c2)cn1` [Example 196] it is 118%; for `CCNC(=O)Nc1cc(-c2nnc(-c3ccccc3)o2)c(-c2cnc(OC)c(-c3n[nH]c(=O)o3)c2)cn1` [Example 197] it is 106%. To `CCNC(=O)Nc1cc(-c2nnc(-c3ccc(F)cc3)o2)c(-c2cncc(-c3n[nH]c(=O)o3)c2)cn1` [Example 198] belongs 104%. The figure for `CCNC(=O)Nc1cc(-c2nc(-c3ccccc3)cs2)c(-c2nc(-c3ncccn3)c(-c3n[nH]c(=O)o3)s2)cn1` [Example 199] is 94%. As to `CCNC(=O)Nc1cc(-c2nc(-c3ccccc3)cs2)c(-c2nc(-c3ncnn3C)c(-c3n[nH]c(=O)o3)s2)cn1` [Example 200], the inhibition at 1 µM turned out to be 93%. With `CCNC(=O)Nc1cc(-c2nc(-c3ccccn3)cs2)c(-c2nc(-c3ncccn3)c(-c3n[nH]c(=O)o3)s2)cn1` [Example 201], the inhibition at 1 µM is 107%. For the compound `CCNC(=O)Nc1cc(-c2nc(-c3cccc(OC)n3)cs2)c(-c2cncc(-c3n[nH]c(=O)o3)c2)cn1` [Example 202], the inhibition at 1 µM amounted to 43%. To `CCNC(=O)Nc1cc(-c2nc(-c3ccc(OC)nc3)cs2)c(-c2cncc(-c3n[nH]c(=O)o3)c2)cn1` [Example 203] belongs 104%; to `CCNC(=O)Nc1cc(-c2nc(-c3cccnc3F)cs2)c(-c2cncc(-c3n[nH]c(=O)o3)c2)cn1` [Example 204], 101%; to `CCNC(=O)Nc1cc(-c2nc(-c3cnn(C)c3)cs2)c(-c2cnc(OC)c(-c3n[nH]c(=O)o3)c2)cn1` [Example 205], 100%.

As for `CCNC(=O)Nc1cc(-c2nc(-c3cnn(C)c3)cs2)c(-c2cncc(-c3n[nH]c(=O)o3)n2)cn1` [Example 206], the inhibition at 1 µM was 99%. To `CCNC(=O)Nc1cc(-c2nc(-c3cccnc3OCCOC)cs2)c(-c2cnc(OC)c(-c3n[nH]c(=O)o3)c2)cn1` [Example 207] belongs 101%. As for `CCNC(=O)Nc1cc(-c2nc(-c3cccnc3OCCOC)cs2)c(-c2cncc(-c3n[nH]c(=O)o3)c2)cn1` [Example 208], the inhibition at 1 µM is 100%. The figure for `CCNC(=O)Nc1cc(-c2nc(C3CCCC3)cs2)c(-c2cncc(-c3n[nH]c(=O)o3)c2)cn1` [Example 209] is 95%; for `CCNC(=O)Nc1cc(-c2nc(C3CC3)cs2)c(-c2cncc(-c3n[nH]c(=O)o3)c2)cn1` [Example 210] it is 65%. To `CCNC(=O)Nc1cc(-c2nc(C3CCCCC3)cs2)c(-c2cncc(-c3n[nH]c(=O)o3)c2)cn1` [Example 211] belongs 109%; to `CCNC(=O)Nc1cc(-c2nc(C3CCOC(C)(C)C3)cs2)c(-c2cncc(-c3n[nH]c(=O)o3)c2)cn1` (stereo not shown) [Example 212], 97%.

For `CCNC(=O)Nc1cc(-c2nc(C3CCN(C(=O)n4ccnc4)CC3)cs2)c(-c2cncc(-c3n[nH]c(=O)o3)c2)cn1` [Example 213], the inhibition at 1 µM came out at 95%. On to `CCNC(=O)Nc1cc(-c2nc(C(F)(F)F)cs2)c(-c2cc(-c3n[nH]c(=O)o3)cnc2OC2CCCCC2)cn1` [Example 214], for which the inhibition at 1 µM was found to be 109%.
